Measurements from US20230284618A1, “HERBICIDAL COMBINATIONS” (UPL Corporation Limited, priority 2022, published 2023).

Columns and labels:
Assay type in all cases: in vivo
Yellow Nutsedge = assay: Pre-emergence bio-efficacy, weed control 27 DAT; conditions: 27 days after treatment, G ai: imazamox 105, rimsulfuron 70, pendimethalin 4270, mesotrione 210
Description: (§1) Experiments were carried out to evaluate the bio-efficacy of the herbicidal combinations according to the present disclosure. The herbicides were applied at the pre-emergence stage. The results have been disclosed in Tables 1-5.
(§2) Weeds: Giant Foxtail, Common Ragweed, Galinsoga, Yellow Nutsedge

Common Ragweed = assay: Pre-emergence bio-efficacy, weed control 27 DAT; conditions: 27 days after treatment, G ai: imazamox 105, rimsulfuron 70, pendimethalin 4270, mesotrione 210
Description: as §1, §2

Giant Foxtail = assay: Pre-emergence bio-efficacy, weed control 27 DAT; conditions: 27 days after treatment, G ai: imazamox 105, rimsulfuron 70, pendimethalin 4270, mesotrione 210
Description: as §1, §2

Galinsoga = assay: Pre-emergence bio-efficacy, weed control 27 DAT; conditions: 27 days after treatment, G ai: imazamox 105, rimsulfuron 70, pendimethalin 4270, mesotrione 210
Description: as §1, §2

Red Sorrel = assay: Pre-emergence bio-efficacy, weed control 85 DAT; conditions: 85 days after treatment, G ai: imazamox 105, rimsulfuron 70, pendimethalin 4270, mesotrione 210
Description: as §1
(§3) Weeds: Common Velvetgrass, Broadleaf spp., Red Sorrel, Dandelion, Geranium spp.

Dandelion = assay: Pre-emergence bio-efficacy, weed control 85 DAT; conditions: 85 days after treatment, G ai: imazamox 105, rimsulfuron 70, pendimethalin 4270, mesotrione 210
Description: as §1, §3

Geranium spp. = assay: Pre-emergence bio-efficacy, weed control 85 DAT; conditions: 85 days after treatment, G ai: imazamox 105, rimsulfuron 70, pendimethalin 4270, mesotrione 210
Description: as §1, §3

In the case of COCc1cnc(C2=NC(C)(C(C)C)C(=O)N2)c(C(=O)O)c1 (stereo not shown) [Imazamox], the “Control 27 DAT (%) Yellow Nutsedge” value (Yellow Nutsedge) is reported as 40%, the “Control 27 DAT (%) Common Ragweed” value (Common Ragweed) is reported as 63% and the “Control 27 DAT (%) Giant Foxtail” value (Giant Foxtail) is reported as 58%. The “Control 27 DAT (%) Galinsoga” value (Galinsoga) was 53%, the “Control 85 DAT (%) Red Sorrel” value (Red Sorrel) was 13% and the “Control 85 DAT (%) Dandelion” value (Dandelion) was 5%. The “Control 85 DAT (%) Geranium spp.” value (Geranium spp.) was 8%.
With CS(=O)(=O)c1ccc(C(=O)C2C(=O)CCCC2=O)c([N+](=O)[O-])c1 [Mesotrione] the “Control 85 DAT (%) Red Sorrel” value (Red Sorrel) was 8%, the “Control 85 DAT (%) Dandelion” value (Dandelion) was 8% and the “Control 85 DAT (%) Geranium spp.” value (Geranium spp.) was 5%.
For CCC(CC)Nc1c([N+](=O)[O-])cc(C)c(C)c1[N+](=O)[O-] [Pendimethalin], the “Control 85 DAT (%) Red Sorrel” value (Red Sorrel) was 15%, the “Control 85 DAT (%) Dandelion” value (Dandelion) was 20% and the “Control 85 DAT (%) Geranium spp.” value (Geranium spp.) was 18%.
With CCS(=O)(=O)c1cccnc1S(=O)(=O)NC(=O)Nc1nc(OC)cc(OC)n1 [Rimsulfuron] the “Control 85 DAT (%) Red Sorrel” value (Red Sorrel) was 18%, the “Control 85 DAT (%) Dandelion” value (Dandelion) was 45% and the “Control 85 DAT (%) Geranium spp.” value (Geranium spp.) was 28%.
